From patent publication EP0335292A2, “2,6-Methano-1,3-benzodiazocines, a process for their preparation and their use as medicaments” (HOECHST-ROUSSEL PHARMACEUTICALS INCORPORATED, priority 1988, dated 1989)
Where a name gives a salt, the structure may show the parent alone.

system: mice; assay: modified phenyl-p-quinone writhing assay in mice (analgesia); type: in vivo; conditions: Mus musculus, sc; read-out: Analgesic Activity (Inhibition of Writhing ED₅₀mg/kg,s.c.)
Protocol: The 2,6-methano-1,3-benzodiazocines of this invention are useful as analgetics due to their ability to alleviate pain in mammals. The procedure employed to determine analgetic activity is a modification of the phenyl-p-quinone writhing assay in mice, a standard assay for analgesia [Proc. Soc. Exptl. Bio. Med., 95 729(1957)]. Pursuant to the modified procedure, phenyl-p-benzoquinone (Eastman, 12.5 mg) is dissolved in 5 ml of 95% ethanol and the solution is diluted to a total volume of 100 ml with distilled water. The solution is administered to the subject mice intraperitoneally at a dose of 10 ml per kg of body weight. A characteristic "writhe", an inward rotation of one or more feet with twisting and turning of the trunk, drawing in of the abdominal wall, lordosis and arching of the back, is produced.
A total of 28 male mice (Charles River, CD-1), weighing 18 to 30 grams, are employed for a time response. The subject animals receive food and water ad libitum. Test compounds are dissolved in distilled water, or suspended in distilled water containing one drop of a suitable surfactant, such as Tween-80.
Four groups of five animals (20 animals) are given the test compound subcutaneously or orally (p.o.) at 15, 30, 45, and 60 minutes prior to administration of the phenyl-p-quinone. A control group (2 animals per group) receive an equal volume of the vehicle. After the administration of the phenyl-p-quinone, the mice are placed separately in one liter beakers, and after five minutes, are observed for ten minutes. The number of writhes for each animal is recorded. The following formula is used to compute the percent inhibition: […]
The time period with the greatest percent of inhibition is considered the peak time. A dose range determination is generally reserved for those compounds which inhibit [formula] writhing by greater than 65-70% at the screening dose. A dose range determination is run in the same manner as the time response except 10 animals per group are tested at the peak time of test drug activity. Fifty animals, four test drug groups, and a vehicle control are employed. Animals are dosed and tested in a randomized manner.

| SMILES | ED50 |
| --- | --- |
| CN1CCC2CC1N(C)c1ccc(O)cc12.O=C(O)/C=C/C(=O)O (centres unmarked) [1,2,3,4,5,6-Hexahydro-1,3-dimethyl-2,6-methano-1,3-benzodiazocin-8-ol fumarate] | 0.7 mg/kg |
| CC(C)=CCN1CCC2(C)c3cc(O)ccc3CC1C2C (centres unmarked) [pentazocine, reference compound] | 1.3 mg/kg |
| CN1CCC2CC1N(C)c1c(Br)cc(O)cc12 (centres unmarked) [10-Bromo-1,2,3,4,5,6-hexahydro-1,3-dimethyl-2,6-methano-1,3-benzodiazocin-8-ol, hemi-fumarate] | 1.9 mg/kg |
| COc1ccc2c(c1)C1CCN(C)C(C1)N2C (centres unmarked) [1,2,3,4,5,6-Hexahydro-8-methoxy-1,3-dimethyl-2,6-methano 1,3-benzodiazocine] | 10.2 mg/kg |
| CC(=O)Oc1ccc2c(c1)C1CCN(C)C(C1)N2C (centres unmarked) [1,2,3,4,5,6-Hexahydro-1,3-dimethyl-2,6-methano-1,3-benzodiazocin-8-ol acetate, fumarate] | 0.74 mg/kg |
